Experiments:
Type in all cases: in vivo, mouse
[1] = Liver enzyme levels in ApoE knockout mice; conditions: for Liver Enzyme Levels AST: Control 55; for Liver Enzyme Levels ALT: Control 56
Excerpt: Female ApoE knockout mice ranged in age from 5 to 7 weeks and were placed on a normal diet for 2 weeks before study initiation. ApoE knockout mice were then fed ad libitum a 60% fat diet, with 0.15% added cholesterol to induce dyslipidemia and obesity. […]
(§1) At study termination and forty eight hours after the final injections, animals were sacrificed and evaluated for target mRNA levels in liver by RT-PCR methods verified by Northern Blot analysis, glucose levels, cholesterol and lipid levels by HPLC separation methods and triglyceride and liver enzyme levels (perfomed by LabCorp Preclinical Services; San Diego, Calif.). Data are normalized to saline controls.

[2] = Lipoprotein (VLDL, LDL, HDL) levels, high fat fed mice, 6 week study; conditions: for HDL Percent Inhibition / LDL Percent Inhibition / VLDL Percent Inhibition: negative = increase
Protocol: (§2) Male C57BL/6 mice (n=8) receiving a high fat diet (60% kcal fat) were evaluated over the course of 6 weeks for the effects of treatment with the antisense oligonucleotide, ISIS 147764. Control animals received saline treatment (50 mg/kg). A subset of animals received a daily oral dose (20 mg/kg) atorvastatin calcium (Lipitor®, Pfizer Inc.). All mice, except atorvastatin-treated animals, were dosed intraperitoneally every three days (twice a week), after fasting overnight, with 5, 25, 50 mg/kg ISIS 147764 (SEQ ID No: 109) or saline (50 mg/kg) for six weeks. Serum cholesterol and lipoproteins were analyzed at 0, 2 and 6 week interim timepoints. At study termination, animals were sacrificed 48 hours after the final injections and evaluated for levels of target mRNA levels in liver, cholesterol, lipoprotein, triglyceride, liver enzyme (AST and ALT) and serum glucose levels as well as body, liver, spleen and fat pad weights.
Male C57BL/6 mice (n=8) receiving a high fat diet (60% kcal fat) were evaluated over the course of 6 weeks for the effects of ISIS 147764 on lipoprotein (VLDL, LDL and HDL) levels. Control animals received saline treatment (50 mg/kg). Mice were dosed intraperitoneally every three days (twice a week), after fasting overnight, with 5, 25, 50 mg/kg ISIS 147764 (SEQ ID No: 109) or saline (50 mg/kg) for six weeks.
Values in the table are expressed as percent inhibition and are normalized to the saline control. Negative values indicate an observed increase in lipoprotein levels.

[3] = Glucose, cholesterol and lipoprotein levels in ApoE knockout mice; conditions: for Lipoprotein Levels HDL: Control 51; for Glucose Levels: Control 225; for Lipoprotein Levels LDL: Control 525; for Lipoprotein Levels VLDL: Control 1190; for Cholesterol Levels: Control 1750
Protocol: (§3) Female ApoE knockout mice ranged in age from 5 to 7 weeks and were placed on a normal diet for 2 weeks before study initiation. ApoE knockout mice were then fed ad libitum a 60% fat diet, with 0.15% added cholesterol to induce dyslipidemia and obesity. Control animals were maintained on a high-fat diet with no added cholesterol After overnight fasting, mice from each group were dosed intraperitoneally every three days with saline, 50 mg/kg of a control antisense oligonucleotide (ISIS 29837 […]; SEQ ID NO. 124) or 5, 25 or 50 mg/kg ISIS 147764 (SEQ ID No: 109) for six weeks.
as §1

[4] = Serum cholesterol and triglyceride levels, high fat fed mice, 6 week study; conditions: for Percent Inhibition of cholesterol levels: normalized to saline; for triglycerides / serum cholesterol: study end; for triglycerides: control 115 mg/dL; for serum cholesterol: control 240 mg/dL
Protocol: as §2
Male C57BL/6 mice (n=8) receiving a high fat diet (60% kcal fat) were evaluated over the course of 6 weeks for the effects of ISIS 147764 on serum cholesterol and triglyceride levels. Control animals received saline treatment (50 mg/kg). Mice were dosed intraperitoneally every three days (twice a week), after fasting overnight, with 5, 25, 50 mg/kg ISIS 147764 (SEQ ID No: 109) or saline (50 mg/kg) for six weeks.
Values in the table are expressed as percent inhibition and are normalized to the saline control.
In addition to serum cholesterol, at study termination, animals were sacrificed 48 hours after the final injections and evaluated for triglyceride levels.

[5] = test system: apolipoprotein B mRNA; assay: Target mRNA levels in liver of ApoE knockout mice, RT-PCR; conditions: six weeks
Protocol: as §3, §1

Sequence: GTCCCTGAAGATGTCAATGC (2'-MOE gapmer with phosphorothioates, pattern not given here) [ISIS 147764, 2′-MOE gapmer phosphorothioate oligonucleotide to mouse apolipoprotein B]
- changes in liver enzyme levels [1]: No significant changes
- Liver Enzyme Levels AST ([1]; 5 mg/kg): 50 IU/L
- Liver Enzyme Levels ALT ([1]; 5 mg/kg): 48 IU/L
- Liver Enzyme Levels AST ([1]; 25 mg/kg): 60 IU/L
- Liver Enzyme Levels ALT ([1]; 25 mg/kg): 59 IU/L
- Liver Enzyme Levels AST ([1]; 50 mg/kg): 85 IU/L
- Liver Enzyme Levels ALT ([1]; 50 mg/kg): 87 IU/L
- HDL Percent Inhibition ([2]; 5 mg/kg, 0 weeks): 0%
- LDL Percent Inhibition ([2]; 5 mg/kg, 0 weeks): 2%
- VLDL Percent Inhibition ([2]; 5 mg/kg, 0 weeks): 0%
- HDL Percent Inhibition ([2]; 5 mg/kg, 2 weeks): 5%
- LDL Percent Inhibition ([2]; 5 mg/kg, 2 weeks): −30%
- VLDL Percent Inhibition ([2]; 5 mg/kg, 2 weeks): 25%
- HDL Percent Inhibition ([2]; 5 mg/kg, 6 weeks): 10%
- LDL Percent Inhibition ([2]; 5 mg/kg, 6 weeks): −10%
- VLDL Percent Inhibition ([2]; 5 mg/kg, 6 weeks): 10%
- HDL Percent Inhibition ([2]; 25 mg/kg, 0 weeks): 0%
- LDL Percent Inhibition ([2]; 25 mg/kg, 0 weeks): 0%
- VLDL Percent Inhibition ([2]; 25 mg/kg, 0 weeks): 0%
- HDL Percent Inhibition ([2]; 25 mg/kg, 2 weeks): 10%
- LDL Percent Inhibition ([2]; 25 mg/kg, 2 weeks): 10%
- VLDL Percent Inhibition ([2]; 25 mg/kg, 2 weeks): 30%
- HDL Percent Inhibition ([2]; 25 mg/kg, 6 weeks): 45%
- LDL Percent Inhibition ([2]; 25 mg/kg, 6 weeks): 55%
- VLDL Percent Inhibition ([2]; 25 mg/kg, 6 weeks): −30%
- lowering all categories of serum lipoproteins investigated, compared with atorvastatin ([2]; 50 mg/kg): to a greater extent than atorvastatin
- HDL Percent Inhibition ([2]; 50 mg/kg, 0 weeks): 0%
- LDL Percent Inhibition ([2]; 50 mg/kg, 0 weeks): 0%
- VLDL Percent Inhibition ([2]; 50 mg/kg, 0 weeks): 0%
- HDL Percent Inhibition ([2]; 50 mg/kg, 2 weeks): 10%
- LDL Percent Inhibition ([2]; 50 mg/kg, 2 weeks): 40%
- VLDL Percent Inhibition ([2]; 50 mg/kg, 2 weeks): 40%
- HDL Percent Inhibition ([2]; 50 mg/kg, 6 weeks): 50%
- LDL Percent Inhibition ([2]; 50 mg/kg, 6 weeks): 90%
- VLDL Percent Inhibition ([2]; 50 mg/kg, 6 weeks): 15%
- Lipoprotein Levels HDL ([3]; 5 mg/kg): 49 mg/dL
- Glucose Levels ([3]; 5 mg/kg): 195 mg/dL
- Lipoprotein Levels LDL ([3]; 5 mg/kg): 475 mg/dL
- Lipoprotein Levels VLDL ([3]; 5 mg/kg): 1111 mg/dL
- Cholesterol Levels ([3]; 5 mg/kg): 1630 mg/dL
- Lipoprotein Levels HDL ([3]; 25 mg/kg): 62 mg/dL
- Glucose Levels ([3]; 25 mg/kg): 209 mg/dL
- Lipoprotein Levels LDL ([3]; 25 mg/kg): 500 mg/dL
- Lipoprotein Levels VLDL ([3]; 25 mg/kg): 1194 mg/dL
- Cholesterol Levels ([3]; 25 mg/kg): 1750 mg/dL
- Lipoprotein Levels HDL ([3]; 50 mg/kg): 61 mg/dL
- Glucose Levels ([3]; 50 mg/kg): 191 mg/dL
- Lipoprotein Levels LDL ([3]; 50 mg/kg): 325 mg/dL
- Lipoprotein Levels VLDL ([3]; 50 mg/kg): 1113 mg/dL
- Cholesterol Levels ([3]; 50 mg/kg): 1490 mg/dL
- Percent Inhibition of cholesterol levels ([4]; 5 mg/kg, 0 weeks): 0%
- Percent Inhibition of cholesterol levels ([4]; 5 mg/kg, 2 weeks): 5%
- Percent Inhibition of cholesterol levels ([4]; 5 mg/kg, 6 weeks): 10%
- triglycerides ([4]; 5 mg/kg): 125 mg/dL
- serum cholesterol ([4]; 5 mg/kg): 225 mg/dL
- Percent Inhibition of cholesterol levels ([4]; 25 mg/kg, 0 weeks): 0%
- Percent Inhibition of cholesterol levels ([4]; 25 mg/kg, 2 weeks): 12%
- Percent Inhibition of cholesterol levels ([4]; 25 mg/kg, 6 weeks): 45%
- triglycerides ([4]; 25 mg/kg): 150 mg/dL
- serum cholesterol ([4]; 25 mg/kg): 125 mg/dL
- Percent Inhibition of cholesterol levels ([4]; 50 mg/kg, 0 weeks): 0%
- Percent Inhibition of cholesterol levels ([4]; 50 mg/kg, 2 weeks): 20%
- Percent Inhibition of cholesterol levels ([4]; 50 mg/kg, 6 weeks): 55%
- triglycerides ([4]; 50 mg/kg): 85 mg/dL
- serum cholesterol ([4]; 50 mg/kg): 110 mg/dL
- mRNA Percent Inhibition ([5]; 5 mg/kg i.p. every three days): 2%
- mRNA Percent Inhibition ([5]; 25 mg/kg i.p. every three days): 42%
- mRNA Percent Inhibition ([5]; 50 mg/kg i.p. every three days): 70%

Source: patent US8735364B2, “Antisense modulation of apolipoprotein B expression” (Genzyme Corporation, priority 2001, dated 2014)
